From patent publication US20050043307A1, “Pyridazine, pyrimidine and pyrazine ethyne compounds” (priority 1999, published 2005) come the findings set out here.

`CC(C)(O)C#Cc1nccs1` [Example 2, 2-Methyl-4-(1,3-thiazol-2-yl)-3-butyn-2-ol] had a melting point of 69 to 70 °C.
The figure for `Clc1cncc(C#Cc2nccs2)c1` [Example 6, 3-Chloro-5-(1,3-thiazol-2-ylethynyl)pyridine] is 124 to 125 °C.
